Source: patent US20240173344A1, “USE OF GABAA RECEPTOR AS TARGET IN PREPARATION OR SCREENING OF DRUG FOR LOWERING BLOOD LIPID LEVEL, TREATING OBESITY, AND/OR IMPROVING METABOLISM” (SHANGHAI INSTITUTE OF ENDOCRINE AND METABOLIC DISEASES, priority 2022, published 2024)
Several values for one entry are separate records, joined by “and”; a condition that tells them apart may be missing. Identical values can stand only once.

Test system: obese mouse model
Test: Intraperitoneal puerarin derivatives in obese mouse model: body weight, blood lipid, jejunal TG
Type: in vivo, mice
Details: for Body weight change percentage, Mean: puerarin derivative-1; for Body weight change percentage: intraperitoneal puerarin derivative-1; for Effect on TG (lipid) absorption in small intestine / Effect on blood lipid level / Effect on body weight of the obese mouse: intraperitoneal injection, result in words; for Blood lipid level / Jejunal TG level: individual obese mice
Source text: In the present disclosure, the mice were fed with a high-fat diet in which a mass percentage of fat was 60% for 12 weeks, and when a body weight reached 35 g or more, animal models of alimentary obesity were successfully constructed. At a formal stage of the experiment (starting on day 0 in FIG. 1A, FIG. 3A, FIG. 6A, and FIG. 7A), the mice were raised in single cages, during which a daily food intake of each mouse model was accurately recorded, the feces was collected before and after drug intervention, and a daily body weight curve was recorded.
A method for determining TG in a sample was as follows: 20 mg to 30 mg of a sample was first weighed, a 5% NP40-containing lysis buffer was added, and a resulting mixture was homogenated and incubated in a metal bath at 95° C. for 5 min, which was repeated twice. A resulting homogenate was cooled to room temperature and then centrifuged at 15,000 rpm for 2 min to 3 min, and a resulting supernatant was pipetted for determination. A Biovision kit was used to determine TG. 2 μl of the supernatant was added to each well, and after a chromogenic reaction was completed, a value of each well was determined by a microplate reader. TG in the small intestinal tissue was quantified through a standard protein concentration; and a total amount of lipids excreted with the feces was calculated based on a measured value of the feces sample and a total mass of the sample at 24 h.

[1] = group mean of 10 mice, puerarin derivative-2 group
[2] = group mean of 8 mice, puerarin derivative-3 group

OCC1OC(c2c(O)ccc3c2OC=C(c2ccc(O)cc2)C3O)C(O)C(O)C1O (centres unmarked) [Derivative-1]
Body weight change percentage, Mean (Day 0, group mean of 10 mice): 0.00%
Body weight change percentage (Day 0, individual obese mice): 0.00%
Body weight change percentage, Mean (Day 1, group mean of 10 mice): −1.88%
Body weight change percentage (Day 1, individual obese mice): −0.25% and −2.34% and −2.27% and −3.30% and −2.93% and 0.00% and −2.45% and 0.28% and −2.89% and −2.63%
Body weight change percentage, Mean (Day 2, group mean of 10 mice): −2.10%
Body weight change percentage (Day 2, individual obese mice): −0.74% and −1.86% and −2.56% and −3.79% and −4.32% and −0.26% and −2.20% and 0.00% and −2.62% and −2.63%
Body weight change percentage, Mean (Day 3, group mean of 10 mice): −2.96%
Body weight change percentage (Day 3, individual obese mice): −1.24% and −3.06% and −2.56% and −4.04% and −4.32% and −1.55% and −2.45% and −1.14% and −4.53% and −4.77%
Body weight change percentage, Mean (Day 4, group mean of 10 mice): −3.71%
Body weight change percentage (Day 4, individual obese mice): −0.99% and −3.79% and −3.73% and −6.05% and −4.88% and −3.15% and −3.46% and −2.30% and −4.26% and −4.46%
Body weight change percentage, Mean (Day 5, group mean of 10 mice): −3.61%
Body weight change percentage (Day 5, individual obese mice): −1.74% and −3.55% and −4.33% and −6.05% and −3.48% and −2.08% and −2.95% and −3.79% and −3.70% and −4.46%
Body weight change percentage, Mean (Day 6, group mean of 10 mice): −3.95%
Body weight change percentage (Day 6, individual obese mice): −4.08% and −3.06% and −2.56% and −6.31% and −5.17% and −2.35% and −3.21% and −2.60% and −5.09% and −5.08%
Body weight change percentage, Mean (Day 7, group mean of 10 mice): −4.08%
Body weight change percentage (Day 7, individual obese mice): −3.81% and −2.10% and −5.25% and −6.56% and −6.62% and −2.35% and −2.20% and −3.79% and −4.26% and −3.84%
Effect on TG (lipid) absorption in small intestine: inhibit the TG absorption in small intestine
Effect on blood lipid level: effectively reduce blood lipid level
Effect on body weight of the obese mouse: significantly reduce the body weight

Cc1ccc(-c2coc3c(C4OC(CO)C(O)C(O)C4O)c(O)ccc3c2=O)cc1 (centres unmarked) [puerarin derivative-2]
Body weight change curve, Mean (Day 0, group mean of 10 mice, puerarin derivative-2): 0.00%
Body weight change curve (Day 0, individual obese mice, puerarin derivative-2): 0.00%
Body weight change curve, Mean (Day 1, group mean of 10 mice, puerarin derivative-2): −1.67%
Body weight change curve (Day 1, individual obese mice, puerarin derivative-2): −2.39% and −0.56% and −1.13% and −2.22% and 0.90% and −2.19% and −0.28% and −2.70% and −2.55% and −3.57%
Body weight change curve, Mean (Day 2, group mean of 10 mice, puerarin derivative-2): −2.33%
Body weight change curve (Day 2, individual obese mice, puerarin derivative-2): −2.74% and −2.26% and −1.99% and −4.21% and 0.60% and −2.75% and −0.84% and −2.15% and −2.88% and −4.10%
Body weight change curve, Mean (Day 3, group mean of 10 mice, puerarin derivative-2): −2.88%
Body weight change curve (Day 3, individual obese mice, puerarin derivative-2): −2.74% and −3.43% and −3.16% and −4.55% and 0.00% and −2.75% and −1.41% and −3.55% and −2.88% and −4.37%
Body weight change curve, Mean (Day 4, group mean of 10 mice, puerarin derivative-2): −3.46%
Body weight change curve (Day 4, individual obese mice, puerarin derivative-2): −2.74% and −3.73% and −3.16% and −3.87% and −0.91% and −3.89% and −1.13% and −4.40% and −4.21% and −6.57%
Body weight change curve, Mean (Day 5, group mean of 10 mice, puerarin derivative-2): −3.68%
Body weight change curve (Day 5, individual obese mice, puerarin derivative-2): −2.74% and −4.03% and −3.76% and −4.21% and −0.61% and −3.89% and −1.99% and −4.11% and −4.89% and −6.57%
Body weight change curve, Mean (Day 6, group mean of 10 mice, puerarin derivative-2): −3.68%
Body weight change curve (Day 6, individual obese mice, puerarin derivative-2): −2.74% and −4.03% and −3.16% and −3.54% and −0.91% and −4.47% and −4.67% and −3.55% and −2.88% and −6.85%
Body weight change curve, Mean (Day 7, group mean of 10 mice, puerarin derivative-2): −3.98%
Body weight change curve (Day 7, individual obese mice, puerarin derivative-2): −3.45% and −2.26% and −2.57% and −3.87% and −2.15% and −5.66% and −4.37% and −2.43% and −5.93% and −7.13%
Blood lipid level, Mean [1]: 1.0006 mM
Jejunal TG level, Mean [1]: 1.3072 μmol/mg/protein
Blood lipid level (puerarin derivative-2 group): 1.0874 mM and 1.0496 mM and 0.6903 mM and 0.8792 mM and 0.6729 mM and 1.3428 mM and 0.9551 mM and 1.1631 mM and 1.1347 mM and 1.0307 mM
Jejunal TG level (puerarin derivative-2 group): 1.7043 μmol/mg/protein and 1.5325 μmol/mg/protein and 1.5551 μmol/mg/protein and 1.3572 μmol/mg/protein and 1.1252 μmol/mg/protein and 1.1433 μmol/mg/protein and 1.3121 μmol/mg/protein and 1.0924 μmol/mg/protein and 1.2506 μmol/mg/protein and 0.9988 μmol/mg/protein
Effect on TG (lipid) absorption in small intestine: inhibiting the small intestinal lipid absorption
Effect on blood lipid level: reducing blood lipid
Effect on body weight of the obese mouse: reducing blood lipid and body weight

OCC1OC2c3c(ccc4c3OC=C(c3ccc(O)cc3)C4O)OC2C(O)C1O (centres unmarked) [puerarin derivative-3]
Body weight change curve, Mean (Day 0, group mean of 8 mice, puerarin derivative-3): 0.00%
Body weight change curve (Day 0, individual obese mice, puerarin derivative-3): 0.00%
Body weight change curve, Mean (Day 1, group mean of 8 mice, puerarin derivative-3): −2.37%
Body weight change curve (Day 1, individual obese mice, puerarin derivative-3): −3.96% and −2.50% and −1.71% and −2.35% and −2.28% and −0.26% and −2.59% and −3.32%
Body weight change curve, Mean (Day 2, group mean of 8 mice, puerarin derivative-3): −3.16%
Body weight change curve (Day 2, individual obese mice, puerarin derivative-3): −5.57% and −1.65% and −3.77% and −2.65% and −4.06% and −0.80% and −2.88% and −3.90%
Body weight change curve, Mean (Day 3, group mean of 8 mice, puerarin derivative-3): −3.01%
Body weight change curve (Day 3, individual obese mice, puerarin derivative-3): −1.49% and −2.50% and −4.68% and −2.65% and −4.36% and −1.34% and −2.88% and −4.19%
Body weight change curve, Mean (Day 4, group mean of 8 mice, puerarin derivative-3): −3.76%
Body weight change curve (Day 4, individual obese mice, puerarin derivative-3): −2.09% and −3.65% and −6.24% and −2.65% and −3.76% and −1.07% and −4.39% and −6.27%
Body weight change curve, Mean (Day 5, group mean of 8 mice, puerarin derivative-3): −4.10%
Body weight change curve (Day 5, individual obese mice, puerarin derivative-3): −3.02% and −3.65% and −6.24% and −2.65% and −4.06% and −1.88% and −5.00% and −6.27%
Body weight change curve, Mean (Day 6, group mean of 8 mice, puerarin derivative-3): −4.33%
Body weight change curve (Day 6, individual obese mice, puerarin derivative-3): −3.33% and −5.13% and −6.24% and −2.65% and −3.46% and −4.41% and −2.88% and −6.57%
Body weight change curve, Mean (Day 7, group mean of 8 mice, puerarin derivative-3): −5.42%
Body weight change curve (Day 7, individual obese mice, puerarin derivative-3): −5.24% and −6.65% and −7.51% and −3.26% and −3.76% and −4.13% and −5.93% and −6.88%
Blood lipid level, Mean [2]: 1.2750 mM
Jejunal TG level, Mean [2]: 1.2900 μmol/mg/protein
Blood lipid level (puerarin derivative-3 group): 1.62 mM and 1.06 mM (2×) and 1.69 mM and 1.23 mM and 1.07 mM and 1.29 mM and 1.18 mM
Jejunal TG level (puerarin derivative-3 group): 1.29 μmol/mg/protein and 1.48 μmol/mg/protein (2×) and 1.36 μmol/mg/protein and 1.27 μmol/mg/protein and 1.53 μmol/mg/protein and 1.06 μmol/mg/protein and 0.85 μmol/mg/protein
Effect on TG (lipid) absorption in small intestine: inhibiting the small intestinal lipid absorption
Effect on blood lipid level: reducing blood lipid
Effect on body weight of the obese mouse: reducing blood lipid and body weight
